Measured values published in ChEMBL document CHEMBL5385886, “Design, synthesis and evaluation of nitric oxide releasing derivatives of 2,4-diaminopyrimidine as novel FAK inhibitors for intervention of metastatic triple-negative breast cancer” (Eur J Med Chem, 2023).
The source made the active and inactive calls. No cut-off for these calls is given here.

Experiments:
MDA-MB-231 [1] = assay: Antiproliferative activity against human MDA-MB-231 cells assessed as inhibition of cell proliferation at 5 uM incubated for 72 hrs by MTT assay relative to control; type: functional
MDA-MB-157 = assay: Antiproliferative activity against human MDA-MB-157 cells assessed as inhibition of cell proliferation incubated for 72 hrs by MTT assay; type: functional, cell-based; conditions: MDA-MB-157, 72 h
MDA-MB-231 [2] = assay: Antiproliferative activity against human MDA-MB-231 cells assessed as inhibition of cell proliferation incubated for 72 hrs by MTT assay; type: functional, cell-based; conditions: MDA-MB-231, 72 h
MDA-MB-453 = assay: Antiproliferative activity against human MDA-MB-453 cells assessed as inhibition of cell proliferation incubated for 72 hrs by MTT assay; type: functional, cell-based; conditions: MDA-MB-453, 72 h
[3] = Selectivity index, ratio of IC50 for human MCF-10A cells to IC50 for human MDA-MB-231 cells; type: toxicity; conditions: MCF-10A cells versus MDA-MB-231 cells, read-out: Ratio IC50
[4] = Cytotoxicity against human MCF-10A cells assessed as inhibition of cell proliferation incubated for 72 hrs by MTT assay; type: toxicity, cell-based
MDA-MB-231 [5] = assay: Potency index, ratio of TAE226 IC50 to test compound IC50 for antiproliferative activity against human MDA-MB-231 cells assessed as inhibition of cell proliferation incubated for 72 hrs by MTT assay; type: functional
Focal adhesion kinase 1 [6] = biological target: T1, Focal adhesion kinase 1 (Homo sapiens, UniProt Q05397); assay: Inhibition of FAK (unknown origin)
Target sequence in this assay (Q05397 whole entry): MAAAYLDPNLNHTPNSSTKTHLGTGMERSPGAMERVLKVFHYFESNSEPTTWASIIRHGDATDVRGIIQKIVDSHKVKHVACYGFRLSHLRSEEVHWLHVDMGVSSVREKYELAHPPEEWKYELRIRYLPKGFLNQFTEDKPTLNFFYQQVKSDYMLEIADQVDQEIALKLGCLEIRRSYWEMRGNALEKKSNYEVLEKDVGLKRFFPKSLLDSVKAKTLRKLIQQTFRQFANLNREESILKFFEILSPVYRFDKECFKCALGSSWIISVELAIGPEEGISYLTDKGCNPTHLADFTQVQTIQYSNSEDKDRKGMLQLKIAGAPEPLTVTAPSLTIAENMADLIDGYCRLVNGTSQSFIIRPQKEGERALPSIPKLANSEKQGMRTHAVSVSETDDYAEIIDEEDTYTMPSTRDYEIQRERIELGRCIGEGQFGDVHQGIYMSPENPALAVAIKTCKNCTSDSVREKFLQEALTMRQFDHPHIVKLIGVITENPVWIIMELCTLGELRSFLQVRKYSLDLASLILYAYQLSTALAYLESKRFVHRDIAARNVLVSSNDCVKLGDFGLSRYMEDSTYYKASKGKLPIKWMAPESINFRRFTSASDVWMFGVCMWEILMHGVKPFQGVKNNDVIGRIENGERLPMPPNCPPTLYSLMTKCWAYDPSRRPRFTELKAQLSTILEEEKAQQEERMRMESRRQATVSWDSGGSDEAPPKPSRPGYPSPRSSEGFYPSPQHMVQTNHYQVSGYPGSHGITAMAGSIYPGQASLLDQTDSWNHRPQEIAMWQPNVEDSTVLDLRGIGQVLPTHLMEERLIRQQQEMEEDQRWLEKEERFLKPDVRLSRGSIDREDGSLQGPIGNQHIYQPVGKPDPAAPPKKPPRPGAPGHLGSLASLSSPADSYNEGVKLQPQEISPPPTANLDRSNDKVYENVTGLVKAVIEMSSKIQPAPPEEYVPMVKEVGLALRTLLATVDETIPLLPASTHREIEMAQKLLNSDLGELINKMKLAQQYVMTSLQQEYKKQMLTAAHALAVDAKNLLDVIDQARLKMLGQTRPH

MDA-MB-231 [7] = assay: Antimigratory activity in human MDA-MB-231 cells incubated for 48 hrs by scratch wound healing assay; type: functional, cell-based; conditions: dose 1-4 µM
MDA-MB-231 [8] = assay: Induction of NO production in human MDA-MB-231 cells incubated for 72 hrs by DAF-FM-DA dye based flow cytometry analysis; type: functional, cell-based; conditions: dose 1-4 µM
MDA-MB-231 [9] = assay: Antiproliferative activity against human MDA-MB-231 cells assessed as inhibition of cell proliferation at 1 uM incubated for 72 hrs by MTT assay; type: functional, cell-based
MDA-MB-231 [10] = assay: Antiproliferative activity against human MDA-MB-231 cells assessed as inhibition of cell proliferation at 1 uM pretreated with carboxy-PTIO at 5 to 20 uM for 1 hr followed by compound addition and further incubated for 72 hrs by MTT assay; type: functional, cell-based
MDA-MB-231 [11] = assay: Inhibition of cell invasion in human MDA-MB-231 cells assessed as reduction in number of invasive cells incubated for 48 hrs by crystal violet staining based inverted microscopic analysis; type: functional; conditions: dose 1-4 µM
Focal adhesion kinase 1 [12] = biological target: T1, Focal adhesion kinase 1; assay: Inhibition of FAK autophosphorylation at Y397 residue in human MDA-MB-231 cells incubated for 72 hrs by Western blot analysis; type: cell-based; conditions: dose 1-4 µM
Target sequence in this assay (Q05397 2-1052 limits assumed): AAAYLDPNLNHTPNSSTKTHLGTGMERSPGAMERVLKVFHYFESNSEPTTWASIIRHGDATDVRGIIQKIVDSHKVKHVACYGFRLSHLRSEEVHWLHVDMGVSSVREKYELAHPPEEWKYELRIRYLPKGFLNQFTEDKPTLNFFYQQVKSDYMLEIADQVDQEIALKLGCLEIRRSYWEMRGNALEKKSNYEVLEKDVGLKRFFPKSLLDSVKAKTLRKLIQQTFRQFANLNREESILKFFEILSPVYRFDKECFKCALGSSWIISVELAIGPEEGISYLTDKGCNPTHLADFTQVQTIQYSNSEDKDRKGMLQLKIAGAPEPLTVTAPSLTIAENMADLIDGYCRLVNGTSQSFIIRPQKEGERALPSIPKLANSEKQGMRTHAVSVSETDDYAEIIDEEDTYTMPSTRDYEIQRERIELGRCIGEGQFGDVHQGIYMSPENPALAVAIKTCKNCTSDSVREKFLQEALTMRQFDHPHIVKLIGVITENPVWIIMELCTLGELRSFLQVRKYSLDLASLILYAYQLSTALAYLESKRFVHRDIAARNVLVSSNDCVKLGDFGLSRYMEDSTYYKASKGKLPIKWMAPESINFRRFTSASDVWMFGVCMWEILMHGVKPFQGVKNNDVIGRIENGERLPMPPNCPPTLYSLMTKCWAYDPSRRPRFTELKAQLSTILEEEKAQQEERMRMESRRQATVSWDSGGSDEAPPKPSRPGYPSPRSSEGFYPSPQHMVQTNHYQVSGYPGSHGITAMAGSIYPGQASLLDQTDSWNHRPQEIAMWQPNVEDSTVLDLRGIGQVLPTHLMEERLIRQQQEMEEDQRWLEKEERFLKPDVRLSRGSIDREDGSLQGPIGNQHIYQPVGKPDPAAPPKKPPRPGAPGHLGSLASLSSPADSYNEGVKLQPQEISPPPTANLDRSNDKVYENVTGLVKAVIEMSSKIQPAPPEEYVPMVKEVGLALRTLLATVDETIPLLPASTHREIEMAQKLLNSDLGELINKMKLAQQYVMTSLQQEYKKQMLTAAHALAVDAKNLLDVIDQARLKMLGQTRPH

MDA-MB-231 [13] = assay: Effect on FAK protein expression in human MDA-MB-231 cells at 1 to 4 uM incubated for 72 hrs by Western blot analysis; type: functional, cell-based; conditions: dose 1-4 µM
Focal adhesion kinase 1 [14] = biological target: T1, Focal adhesion kinase 1; assay: Inhibition of FAK autophosphorylation at Y397 residue in human MDA-MB-231 cells at 4 uM pretreated with carboxy-PTIO followed by compound addition and further incubated for 72 hrs by Western blot analysis; type: cell-based
Target sequence in this assay (Q05397 2-1052 limits assumed): as above

Focal adhesion kinase 1 [15] = biological target: T1, Focal adhesion kinase 1; assay: Inhibition of FAK-mediated signaling pathway in human MDA-MB-231 cells assessed as reduction in phosphorylated AKT protein level incubated for 72 hrs by Western blot analysis; type: cell-based; conditions: dose 1-4 µM
Target sequence in this assay (Q05397 2-1052 limits assumed): as above

Focal adhesion kinase 1 [16] = biological target: T1, Focal adhesion kinase 1; assay: Inhibition of FAK-mediated signaling pathway in human MDA-MB-231 cells assessed as reduction in MMP-2 protein level incubated for 72 hrs by Western blot analysis; type: cell-based; conditions: dose 1-4 µM
Target sequence in this assay (Q05397 2-1052 limits assumed): as above

Focal adhesion kinase 1 [17] = biological target: T1, Focal adhesion kinase 1; assay: Inhibition of FAK-mediated signaling pathway in human MDA-MB-231 cells assessed as reduction in MMP-9 protein level incubated for 72 hrs by Western blot analysis; type: cell-based; conditions: dose 1-4 µM
Target sequence in this assay (Q05397 2-1052 limits assumed): as above

Focal adhesion kinase 1 [18] = biological target: T1, Focal adhesion kinase 1; assay: Inhibition of FAK-mediated signaling pathway in human MDA-MB-231 cells assessed as reduction in phosphorylated AKT protein level at 4 uM pretreated with carboxy-PTIO followed by compound addition and further incubated for 72 hrs by Western blot analysis; type: cell-based
Target sequence in this assay (Q05397 2-1052 limits assumed): as above

Focal adhesion kinase 1 [19] = biological target: T1, Focal adhesion kinase 1; assay: Inhibition of FAK-mediated signaling pathway in human MDA-MB-231 cells assessed as reduction in MMP-2 protein level at 4 uM pretreated with carboxy-PTIO followed by compound addition and further incubated for 72 hrs by Western blot analysis; type: cell-based
Focal adhesion kinase 1 [20] = biological target: T1, Focal adhesion kinase 1; assay: Inhibition of FAK-mediated signaling pathway in human MDA-MB-231 cells assessed as reduction in MMP-9 protein level at 4 uM pretreated with carboxy-PTIO followed by compound addition and further incubated for 72 hrs by Western blot analysis; type: cell-based
MDA-MB-231 [21] = assay: Inhibition of focal adhesion formation in human MDA-MB-231 cells assessed as reduction in anti-vinculin antibodies fluorescence signal at 4 uM incubated for 72 hrs by confocal microscopic analysis; type: functional, cell-based
MDA-MB-231 [22] = assay: Inhibition of stress fibers formation in human MDA-MB-231 cells assessed as reduction in FITC-conjugated phalloidin fluorescence signal at 4 uM incubated for 72 hrs by confocal microscopic analysis; type: functional, cell-based
MDA-MB-231 [23] = assay: Inhibition of focal adhesion formation in human MDA-MB-231 cells assessed as reduction in anti-vinculin antibodies fluorescence signal at 4 uM pretreated with carboxy-PTIO for 1 hr followed by compound addition and further incubated for 72 hrs by confocal microscopic analysis; type: functional, cell-based
MDA-MB-231 [24] = assay: Inhibition of stress fibers formation in human MDA-MB-231 cells assessed as reduction in FITC-conjugated phalloidin fluorescence signal at 4 uM pretreated with carboxy-PTIO for 1 hr followed by compound addition and further incubated for 72 hrs by confocal microscopic analysis; type: functional, cell-based
MDA-MB-231 [25] = assay: Inhibition of focal adhesion formation in human MDA-MB-231 cells assessed as reduction in number of focal adhesions at 4 uM incubated for 72 hrs by quantitative analysis; type: functional, cell-based
MDA-MB-231 [26] = assay: Inhibition of stress fibers formation in human MDA-MB-231 cells assessed as reduction in number of stress fibers at 4 uM incubated for 72 hrs by quantitative analysis; type: functional, cell-based
MDA-MB-231 [27] = assay: Inhibition of focal adhesion formation in human MDA-MB-231 cells assessed as reduction in total area at 4 uM incubated for 72 hrs; type: functional, cell-based
MDA-MB-231 [28] = assay: Inhibition of stress fibers formation in human MDA-MB-231 cells assessed as reduction in total area at 4 uM incubated for 72 hrs; type: functional, cell-based
MDA-MB-231 [29] = assay: Induction of apoptosis in human MDA-MB-231 cells assessed as live cells at 1 uM incubated for 72 hrs by Annexin V-FITC/PI staining based flow cytometry analysis (reference value: 97.51%); type: functional
MDA-MB-231 [30] = assay: Induction of apoptosis in human MDA-MB-231 cells assessed as early apoptotic cells at 1 uM incubated for 72 hrs by Annexin V-FITC/PI staining based flow cytometry analysis (reference value: 2.16%); type: functional
MDA-MB-231 [31] = assay: Induction of apoptosis in human MDA-MB-231 cells assessed as late apoptotic cells at 1 uM incubated for 72 hrs by Annexin V-FITC/PI staining based flow cytometry analysis (reference value: 0.11%); type: functional
MDA-MB-231 [32] = assay: Induction of apoptosis in human MDA-MB-231 cells assessed as dead cells at 1 uM incubated for 72 hrs by Annexin V-FITC/PI staining based flow cytometry analysis (reference value: 0.23%); type: functional
MDA-MB-231 [33] = assay: Induction of apoptosis in human MDA-MB-231 cells assessed as live cells at 2 uM incubated for 72 hrs by Annexin V-FITC/PI staining based flow cytometry analysis (reference value: 97.51%); type: functional
MDA-MB-231 [34] = assay: Induction of apoptosis in human MDA-MB-231 cells assessed as early apoptotic cells at 2 uM incubated for 72 hrs by Annexin V-FITC/PI staining based flow cytometry analysis (reference value: 2.16%); type: functional
MDA-MB-231 [35] = assay: Induction of apoptosis in human MDA-MB-231 cells assessed as late apoptotic cells at 2 uM incubated for 72 hrs by Annexin V-FITC/PI staining based flow cytometry analysis (reference value: 0.11%); type: functional
MDA-MB-231 [36] = assay: Induction of apoptosis in human MDA-MB-231 cells assessed as dead cells at 2 uM incubated for 72 hrs by Annexin V-FITC/PI staining based flow cytometry analysis (reference value: 0.23%); type: functional
MDA-MB-231 [37] = assay: Induction of apoptosis in human MDA-MB-231 cells assessed as live cells at 4 uM incubated for 72 hrs by Annexin V-FITC/PI staining based flow cytometry analysis (reference value: 97.51%); type: functional
MDA-MB-231 [38] = assay: Induction of apoptosis in human MDA-MB-231 cells assessed as early apoptotic cells at 4 uM incubated for 72 hrs by Annexin V-FITC/PI staining based flow cytometry analysis (reference value: 2.16%); type: functional
MDA-MB-231 [39] = assay: Induction of apoptosis in human MDA-MB-231 cells assessed as late apoptotic cells at 4 uM incubated for 72 hrs by Annexin V-FITC/PI staining based flow cytometry analysis (reference value: 0.11%); type: functional
MDA-MB-231 [40] = assay: Induction of apoptosis in human MDA-MB-231 cells assessed as dead cells at 4 uM incubated for 72 hrs by Annexin V-FITC/PI staining based flow cytometry analysis (reference value: 0.23%); type: functional
MDA-MB-231 [41] = assay: Antitumor activity against human MDA-MB-231 cells xenografted in po dosed BALB/c nude mouse assessed as reduction in number of lung tumor nodules administered once daily for 30 days; type: functional, organism-based; conditions: dose 15-30 mg/kg, time 30.0 day
[42] = Toxicity in BALB/c nude mouse xenografted with human MDA-MB-231 cells assessed as reduction in body weight at 50 to 30 mg/kg, po administered once daily for 30 days and measured every 3 days; type: organism-based; conditions: in vivo, 720 h, dose 50-30 mg/kg, time 30 day
[43] = Toxicity in BALB/c nude mouse xenografted with human MDA-MB-231 cells assessed as animal death at 50 to 30 mg/kg, po administered once daily for 30 days; type: organism-based; conditions: in vivo, 720 h, dose 50-30 mg/kg, time 30 day

## CNC(=O)c1ccccc1Nc1nc(Nc2ccc(CC(=O)OCCCCCCCCOc3no[n+]([O-])c3S(=O)(=O)c3ccccc3)cc2)ncc1Cl
MDA-MB-231 [1]
  inhibition at 5 µM: > 92%
MDA-MB-157
  IC50: 167 nM
MDA-MB-231 [2]
  IC50: 126 nM
MDA-MB-453
  IC50: 159 nM
[3]
  selectivity ratio: 19.1
[4]
  IC50 at 72 h: 2400 nM
MDA-MB-231 [5]
  Ratio IC50: ~10
Focal adhesion kinase 1 [6]
  IC50: 27.4 nM
MDA-MB-231 [7]
  Activity: Dose-Dependent Effect
MDA-MB-231 [8]
  Activity: Dose-Dependent Effect
MDA-MB-231 [9]
  Activity: Active
MDA-MB-231 [10]
  Activity: inactive
MDA-MB-231 [11]
  inhibition: Dose-Dependent Effect
Focal adhesion kinase 1 [12]
  inhibition: Dose-Dependent Effect
MDA-MB-231 [13]
  Activity: inactive
Focal adhesion kinase 1 [14]
  inhibition: inactive
Focal adhesion kinase 1 [15]
  inhibition: Dose-Dependent Effect
Focal adhesion kinase 1 [16]
  inhibition: Dose-Dependent Effect
Focal adhesion kinase 1 [17]
  inhibition: Dose-Dependent Effect
Focal adhesion kinase 1 [18]
  inhibition: inactive
Focal adhesion kinase 1 [19]
  inhibition: inactive
Focal adhesion kinase 1 [20]
  inhibition: inactive
MDA-MB-231 [21]
  inhibition: Active
MDA-MB-231 [22]
  inhibition: Active
MDA-MB-231 [23]
  inhibition: inactive
MDA-MB-231 [24]
  inhibition: inactive
MDA-MB-231 [25]
  inhibition: Active
MDA-MB-231 [26]
  inhibition: Active
MDA-MB-231 [27]
  inhibition: Active
MDA-MB-231 [28]
  inhibition: Active
MDA-MB-231 [29]
  Activity: 77.01%
MDA-MB-231 [30]
  Activity: 12.6%
MDA-MB-231 [31]
  Activity: 6.46%
MDA-MB-231 [32]
  Activity: 3.94%
MDA-MB-231 [33]
  Activity: 74.91%
MDA-MB-231 [34]
  Activity: 9.88%
MDA-MB-231 [35]
  Activity: 13.83%
MDA-MB-231 [36]
  Activity: 1.38%
MDA-MB-231 [37]
  Activity: 26%
MDA-MB-231 [38]
  Activity: 56.72%
MDA-MB-231 [39]
  Activity: 13.94%
MDA-MB-231 [40]
  Activity: 3.34%
MDA-MB-231 [41]
  Activity: Dose-Dependent Effect
[42]
  Activity: Non-Toxic
[43]
  Activity: Non-Toxic
